The test system of test [1] is Gaeumannomyces graminis var. tritici (Ggt). Kind of test: In vitro Assay: mycelial growth of Ggt on minimal media agar plates containing test compound. The class given is cell-based. To be noted: Gaeumannomyces graminis, dark, 19-20° C., 4 to 5 days, diameter of mycelial growth; for inhibition at 0.1 ppm: 0.1 ppm in minimal media agar, read-out: In vitro (ppm) 0.1, Percent Inhibition; for inhibition at 1 ppm: 1 ppm in minimal media agar, read-out: In vitro (ppm) 1, Percent Inhibition; for inhibition at 10 ppm: 10 ppm in minimal media agar, read-out: In vitro (ppm) 10, Percent Inhibition. The procedure, abridged: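 Ggt mycelial diameter read after 4 to 5 days in darkness at 19-20° C, from three 4-mm plugs placed on Czapek Dox minimal agar containing test compound delivered in acetone. Inhibition expressed as percent versus untreated plates, plug size (4 mm) subtracted from both.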

The test system of the next test is Ggt. Kind of test: In vivo Assay: control of Ggt on wheat grown in pots of Ggt-infested soil, root disease rating. More on the design: species or system Gaeumannomyces graminis var. tritici. To be noted: Gaeumannomyces graminis, 672 h; 0.5 mg active ingredient per pot; 'Bergen' or 'Anza' wheat in Ggt-infested soil; after four weeks; vs untreated control; read-out: In vivo, percent disease control. A digest of the protocol:
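Wheat ('Bergen' or 'Anza') seeds in soil infested with Ggt-colonised oats (4% v/v) treated at 0.5 mg active ingredient per pot in acetone/water with Tween 20; five pots per treatment. After four weeks, seminal roots rated 0–5; trimmed mean of three replicates converted to percent disease control versus untreated.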

Regarding `C[Si](C)(C)c1cccc(Cl)c1C(=O)N1CCOCC1` [Example 132, N-[2-Chloro-6-(trimethylsilyl)benzoyl]-morpholine], in test [1], the inhibition (as a rule, the relative decrease from the control value, in per cent) at 0.1 ppm was found to be 54%; the inhibition at 1 ppm was 15%; the inhibition at 10 ppm was 46%. The pest or weed control at 0.5 mg/pot in the test on Ggt is under 0%.

Turning to `CN1CCN(C(=O)c2c(Cl)cccc2[Si](C)(C)C)CC1` [Example 133, N-[2-Chloro-6-(trimethylsilyl)benzoyl]-4-methylpiperazine], in test [1], the inhibition at 0.1 ppm worked out at 13%, the inhibition at 1 ppm was found to be 3% and the inhibition at 10 ppm is 18%. Further, the pest or weed control at 0.5 mg/pot in the test on Ggt is under 0%.

With `C[Si](C)(C)c1cccc(Cl)c1C(=O)N1CCCCC1` [Example 134, N-[2-Chloro-6-(trimethylsilyl)benzoyl]-piperidine], in test [1], the inhibition at 0.1 ppm is under 0%, the inhibition at 1 ppm came out at 3% and the inhibition at 10 ppm came to 39%. In the test with Ggt, the pest or weed control at 0.5 mg/pot is under 0%.

As to `C[Si](C)(C)c1cccc(Cl)c1C(=O)NCC1CC1` [Example 150, 2-Chloro-N-(cyclopropylmethyl)-6-(trimethylsilyl)benzamide], in test [1], the inhibition at 0.1 ppm stood at 34%, the inhibition at 1 ppm is 74% and the inhibition at 10 ppm is 83%. The pest or weed control at 0.5 mg/pot in the test on Ggt was found to be 96%.

With `CC[C@@H](C)NC(=O)c1c(Cl)cccc1[Si](C)(C)C` [Example 151, 2-Chloro-N-(1-methylpropyl)-6-(trimethylsilyl)benzamide, (r)-], in test [1], the inhibition at 0.1 ppm is under 0%, the inhibition at 1 ppm came out at 71% and the inhibition at 10 ppm came out at 57%. For the same compound, the pest or weed control at 0.5 mg/pot in the test with Ggt is 97%.

Regarding `CC[C@H](C)NC(=O)c1c(Cl)cccc1[Si](C)(C)C` [Example 152, 2-Chloro-N-(1-methylpropyl)-6-(trimethylsilyl)benzamide, (s)-], in test [1], the inhibition at 0.1 ppm is under 0%, the inhibition at 1 ppm stood at 71% and the inhibition at 10 ppm was 86%. Moreover, in the test on Ggt, the pest or weed control at 0.5 mg/pot was 54%.

With `C[Si](C)(C)c1cccc(Cl)c1C(=O)NCCBr` [Example 153, N-(2-Bromoethyl)-2-chloro-6-(trimethylsilyl)benzamide], in test [1], the inhibition at 0.1 ppm was under 0%, the inhibition at 1 ppm was 88% and the inhibition at 10 ppm worked out at 91%. Further, the pest or weed control at 0.5 mg/pot with Ggt amounted to 29%.

Consider `C[Si](C)(C)c1cccc(Cl)c1C(=O)NCCF` [Example 155, 2-Chloro-N-(2-fluoroethyl)-6-(trimethylsilyl)benzamide], for which, in test [1], the inhibition at 0.1 ppm is under 0%, the inhibition at 1 ppm amounted to 64% and the inhibition at 10 ppm was found to be 90%. Moreover, in the test with Ggt, the pest or weed control at 0.5 mg/pot came out at 93%.

Regarding `CCOc1ccccc1NC(=O)c1c(Cl)cccc1[Si](C)(C)C` [Example 157, 2-Chloro-N-(2-ethoxyphenyl)-6-(trimethylsilyl)benzamide], in test [1], the inhibition at 0.1 ppm is 7%, the inhibition at 1 ppm was determined as 23% and the inhibition at 10 ppm worked out at 91%. In the test on Ggt, the pest or weed control at 0.5 mg/pot came to 0%.

In the case of `COc1ccccc1NC(=O)c1c(Cl)cccc1[Si](C)(C)C` [Example 159, 2-Chloro-N-(2-methoxyphenyl)-6-(trimethylsilyl)benzamide], in test [1], the inhibition at 0.1 ppm was 12%, the inhibition at 1 ppm was 55% and the inhibition at 10 ppm is 100%. Moreover, the pest or weed control at 0.5 mg/pot with Ggt is 0%.

With `C[Si](C)(C)c1cccc(Cl)c1C(=O)Nc1ccccc1[N+](=O)[O-]` [Example 160, 2-Chloro-N-(2-nitrophenyl)-6-(trimethylsilyl)benzamide], in test [1], the inhibition at 0.1 ppm worked out at 17%, the inhibition at 1 ppm turned out to be 63% and the inhibition at 10 ppm was found to be 88%. Also, in the test on Ggt, the pest or weed control at 0.5 mg/pot worked out at 5%.

For the compound `C=CCNC(=O)NC(=O)c1c(Cl)cccc1[Si](C)(C)C` [Example 165, 2-Chloro-N-[(2-propenylamino)carbonyl]-6-(trimethylsilyl)benzamide], in test [1], the inhibition at 0.1 ppm is under 0%, the inhibition at 1 ppm came to 76% and the inhibition at 10 ppm amounted to 100%. Besides, the pest or weed control at 0.5 mg/pot in the test on Ggt turned out to be 63%.

Take `CCN(CC)C(=O)c1c(Cl)cccc1C[Si](C)(C)C` [Example 166, 2-Chloro-N,N-diethyl-6-[(trimethylsilyl)methyl]benzamide]: in test [1], the inhibition at 0.1 ppm was 4%, the inhibition at 1 ppm was under 0% and the inhibition at 10 ppm worked out at 73%. Further, in the test with Ggt, the pest or weed control at 0.5 mg/pot came to 15%.

As for `CC(C)N(O)C(=O)c1c(Cl)cccc1[Si](C)(C)C` [Example 167, 2-Chloro-N-hydroxy-N-(1-methylethyl)-6-(trimethylsilyl)benzamide], in test [1], the inhibition at 0.1 ppm is 46%, the inhibition at 1 ppm was 86% and the inhibition at 10 ppm worked out at 96%. Also, the pest or weed control at 0.5 mg/pot with Ggt was found to be 93%.

As to `CCN(SC)C(=O)c1c(Cl)cccc1[Si](C)(C)C` [Example 172, 2-Chloro-N-ethyl-N-(methylthio)-6-(trimethylsilyl)benzamide], in test [1], the inhibition at 0.1 ppm was 94%, the inhibition at 1 ppm was 100% and the inhibition at 10 ppm stood at 100%. Moreover, the pest or weed control at 0.5 mg/pot in the test on Ggt was 99%.

In the case of `CSNC(=O)c1c(Cl)cccc1[Si](C)(C)C` [Example 174, 2-Chloro-N-(methylthio)-6-(trimethylsilyl)benzamide], in test [1], the inhibition at 0.1 ppm was 12% and the inhibition at 1 ppm amounted to 65%. Moreover, the pest or weed control at 0.5 mg/pot in the test with Ggt was determined as 0%.

Regarding `C=CC[Si](C)(C)c1cccc(Cl)c1C(=O)NCC` [Example 179, 2-Chloro-6-(dimethyl-2-propenylsilyl)-N-ethylbenzamide], in test [1], the inhibition at 0.1 ppm turned out to be 85%, the inhibition at 1 ppm was 88% and the inhibition at 10 ppm stood at 91%. Besides, the pest or weed control at 0.5 mg/pot in the test with Ggt came out at 97%.

For the compound `CCNC(=O)c1c(Cl)cccc1[Si](C)(C)C(C)C` [Example 180, 2-Chloro-6-[dimethyl(1-methylethyl)silyl]-N-ethylbenzamide], in test [1], the inhibition at 0.1 ppm was found to be 85%, the inhibition at 1 ppm was determined as 82% and the inhibition at 10 ppm came to 90%. The pest or weed control at 0.5 mg/pot with Ggt was 96%.

In the case of `CCN(C(=O)c1ccccc1[Si](C)(C)C)C(OC)C(C)(C)C` (centres unmarked) [Example 187, N-Ethyl-N-(1-methoxy-2,2-dimethylpropyl)-2-(trimethylsilyl)benzamide], in test [1], the inhibition at 0.1 ppm is 13%, the inhibition at 1 ppm stood at 27% and the inhibition at 10 ppm came out at 97%. In addition, the pest or weed control at 0.5 mg/pot with Ggt turned out to be 24%.

On to `CCNC(=O)c1ccccc1N(C)C(C)(C)C` [Example 188, 2-[(1,1-Dimethylethyl)methylamino]-N-ethylbenzamide], for which, in test [1], the inhibition at 0.1 ppm was determined as 29%, the inhibition at 1 ppm came to 71% and the inhibition at 10 ppm came out at 100%. The pest or weed control at 0.5 mg/pot in the test with Ggt was 15%.

On to `CCNC(=O)c1c(C)cccc1N(C)C(C)(C)C` [Example 191, N-Ethyl-2-[(1,1-dimethylethyl)methylamino]-6-methylbenzamide], for which, in test [1], the inhibition at 0.1 ppm is 60%, the inhibition at 1 ppm stood at 88% and the inhibition at 10 ppm came out at 88%. The pest or weed control at 0.5 mg/pot with Ggt is 88%.

Consider `CCNC(=O)c1c(Cl)cccc1NC(C)(C)C` [Example 192, 2-Chloro-6-[(1,1-dimethylethyl)amino]-N-ethylbenzamide], for which, in test [1], the inhibition at 0.1 ppm stood at 86%, the inhibition at 1 ppm came to 95% and the inhibition at 10 ppm came to 95%. Besides, in the test with Ggt, the pest or weed control at 0.5 mg/pot was 99%.

As for `CCNC(=O)c1c(Cl)ccc(Cl)c1[Si](C)(C)C` [Example 200, 3,6-Dichloro-N-ethyl-2-(trimethylsilyl)benzamide], in test [1], the inhibition at 0.1 ppm turned out to be 92%, the inhibition at 1 ppm came out at 100% and the inhibition at 10 ppm worked out at 100%. Besides, the pest or weed control at 0.5 mg/pot in the test on Ggt was 65%.

As to `CCN(C(=O)c1c(Cl)cccc1[Si](C)(C)C)C(OC)C(C)(C)C` (centres unmarked) [Example 201, 2-Chloro-N-ethyl-N-(1-methoxy-2,2-dimethylpropyl)-6-(trimethylsilyl)benzamide], in test [1], the inhibition at 0.1 ppm turned out to be 31%, the inhibition at 1 ppm worked out at 50% and the inhibition at 10 ppm is 100%. Moreover, the pest or weed control at 0.5 mg/pot in the test on Ggt came to 65%.

On to `C=C[Si](C)(c1ccccc1)c1cccc(Cl)c1C(=O)NCC` (centres unmarked) [Example 202, 2-Chloro-6-(ethenylmethylphenylsilyl)-N-ethylbenzamide], for which, in test [1], the inhibition at 0.1 ppm is 33%, the inhibition at 1 ppm is 58% and the inhibition at 10 ppm is 88%. Moreover, in the test with Ggt, the pest or weed control at 0.5 mg/pot stood at 3%.

With `C=CCONC(=O)c1c([Si](C)(C)C)ccc(Cl)c1Cl` [Example 204, 2,3-Dichloro-N-(2-propenyloxy)-6-(trimethylsilyl)benzamide], in test [1], the inhibition at 0.1 ppm is under 0%, the inhibition at 1 ppm was under 0% and the inhibition at 10 ppm worked out at 74%. Moreover, the pest or weed control at 0.5 mg/pot with Ggt is 43%.

In the case of `CCNC(=O)c1c(Cl)cccc1[Si](C)(C)CBr` [Example 210, 2-[(Bromomethyl)dimethylsilyl]-6-chloro-N-ethyl-benzamide], in test [1], the inhibition at 0.1 ppm was 85%, the inhibition at 1 ppm amounted to 88% and the inhibition at 10 ppm is 94%. Moreover, in the test with Ggt, the pest or weed control at 0.5 mg/pot turned out to be 74%.

Values taken from patent publication US6410558B1, “Fungicides for the control of take-all disease of plants” (Monsanto Technology LLC, priority 1991, dated 2002).
